Measurements from patent US11440923B2, “Substituted macrocyclic indole derivatives” (Bayer Aktiengesellschaft, priority 2017, dated 2022).
Where a name gives a salt, the structure may show the parent alone. Read-outs that look alike come from different tables or passages of the source.

Tests used:
BCL-XL = BCL-XL (Homo sapiens (Human), UniProt Q07817); assay: Protein-protein interaction assay BCL-XL/Bad BH3 peptide (BCL-XL assay, TR-FRET); format: binding; details: read-out: BCL-XL Assay IC50 (median)
Method: Assay 2 Protein-Protein Interaction Assay: BCL-XL/Bad BH3 Peptide (BCL-XL Assay)
The dose-dependent inhibition by the compounds described in this invention of the interaction between BCL-XL and the BH3 domain of Bad (both human) was determined using a steady state binding competition assay with time-resolved fluorescence energy transfer (TR-FRET) readout. For that purpose BCL-XL (amino acids 1-212, C-terminal fused to a hexahistidine (6×His) tag (SEQ ID 3) and a synthetic Bad BH3-derived peptide of sequence Biotin-PEG2-PEG2-[…]-Nle-[…]-amide (SEQ ID 4) served as protein receptor and tracer ligand respectively. The recombinant BCL-XL protein (expressed in E. coli) was purchased from BPS Bioscience (San Diego, Calif., USA). The Bad BH3-derived peptide can be obtained from e.g. Biosyntan (Berlin, Germany).
In the assay 11 different concentrations of each compound (0.1 nM, 0.33 nM, 1.1 nM, 3.8 nM, 13 nM, 44 nM, 0.15 μM, 0.51 μM, 1.7 μM, 5.9 μM and 20 μM) were typically measured as duplicates in the same microtiter plate. For that, 100-fold concentrated DMSO solutions were prepared by serial dilutions (1:3.4) of a 2 mM stock solution in a clear, 384-well microtiter plate (Greiner Bio-One, Frickenhausen, Germany). From there, 50 nl were transferred in a dark test plate (Greiner Bio-One, Frickenhausen, Germany). The assay was initiated by addition of 2 μL of a 2,5-fold concentrated His-BCL-XL solution (usually for a 1 nM end concentration in 5 μL reaction volume) in aqueous assay buffer [50 mM Tris/HCl pH 7, 100 mM sodium chloride (NaCl), 50 mM potassium fluoride (KF), 0.005% Tween-20, 2 mM DTT, 0.1% bovine gamma globulin (BGG)] to the compounds in the assay plate. This was followed by a 10-minute incubation step at 22° C. for pre-equilibration of the putative complex between His-BCL-XL and the compounds. After that, 3 μL of a 1.67-fold concentrated solution (in assay buffer) consisting of Bad BH3-derived peptide (1 nM end concentration) and TR-FRET detection reagents [1.67 nM anti-His-Eu cryptate and 1.67 nM streptavidin-XL665 (both from Cisbio Bioassays, Codolet, France)], were added.
The mixture was incubated in the dark for one hour at 22° C. and then overnight at 4° C. The formation of BCL-XL/Bad complexes was determined by measuring the resonance energy transfer of the anti-His- Eu-cryptate antibody to the streptavidin-XL665 present in the reaction. For that purpose, the fluorescence emission at 620 nm and 665 nm after excitation at 330-350 nm was measured in a TR-FRET measuring instrument, for instance a Rubystar or a Pherastar (both from BMG Lab Technologies, Offenburg, Germany) or a Viewlux (Perkin-Elmer). The ratio of the emission at 665 nm and at 622 nm was used as indicator of the amount of BCL-XL/Bad complexes present.
The resulting data (ratio) were normalized, taking 0% inhibition as the mean value of control measurements (usually 32 data points) where all reagents were included. In this case 50 nl DMSO were used instead of compounds. […] IC50 values were determined by regression analysis based on a 4 parameter equation (minimum, maximum, IC50, Hill; Y=Max+(Min−Max)/(1+(X/IC50)^Hill) using the Screener Software (Genedata).

SUDHL10 cells [1] = assay: Induction of caspase-3/7 activity in SUDHL10 cells (Assay 4); format: cell-based
Method in brief: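 Read-out: Caspase-Glo 3/7 luminescence (1 h, 37 °C) after cells, plated overnight, were treated with compounds for 3 h at 37 °C. Signal corrected for cell-free medium background and expressed relative to DMSO control mean.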

HMC-1-8 cells = assay: Antiproliferation assay HMC-1-8 (Assay 7); format: cell-based
Method in brief: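 72 h antiproliferation, 37 °C, CellTiter-Glo luminescence. Day 0 plate = CI; DMSO = C0; IC50 calculated from these.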

SUDHL10 cells [2] = assay: Induction of cytotoxicity in SUDHL10 cells (Assay 6); format: cell-based
Method in brief: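 Cells plated overnight at 37 °C, then exposed to compound for 5 h in a humidified incubator at 37 °C. Viability read by CellTiter-Glo luminescence after 15 min shaking at room temperature; cell-free medium served as control.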

[3] = read-out: Caspase SUDHL10 EC50 (median); caspase-3/7 induction, 3 h
[4] = read-out: Antiproli HMC-1-8 IC50 median; 72 h, CellTiter-Glo
[5] = 5 h, CellTiter-Glo; read-out: Cytotox SUDHL10 IC50 (median)
[6] = Homo sapiens, SU-DHL10, 3 h, caspase-3/7 induction, 3 h; read-out: Caspase SUDHL10 EC50 (median)
[7] = Homo sapiens, SU-DHL10, 5 h, 5 h, CellTiter-Glo; read-out: Cytotox SUDHL10 IC50 (median)
[8] = caspase-3/7 induction, 3 h; read-out: Caspase SUDHL10 EC50 (median)

Sequence of BCL-XL (Q07817 1-212): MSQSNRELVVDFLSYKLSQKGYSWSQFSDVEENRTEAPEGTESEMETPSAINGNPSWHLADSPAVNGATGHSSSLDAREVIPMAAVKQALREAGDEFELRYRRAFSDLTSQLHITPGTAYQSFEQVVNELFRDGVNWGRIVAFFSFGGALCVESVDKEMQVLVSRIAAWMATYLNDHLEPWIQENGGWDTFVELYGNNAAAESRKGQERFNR

| Compound | IC50 (BCL-XL) [µM] | EC50 (SUDHL10 cells [1]; [3]) [µM] | IC50 (HMC-1-8 cells; [4]) [µM] | IC50 (SUDHL10 cells [2]; [5]) [µM] | EC50 (SUDHL10 cells [1]; [6]) [µM] | IC50 (HMC-1-8 cells; 72 h, CellTiter-Glo, read-out: Antiproli HMC-1-8 IC50 median) [µM] | IC50 (SUDHL10 cells [2]; [7]) [µM] | IC50 (SUDHL10 cells [2]; read-out: Cytotox SUDHL10 IC50 (median); 5 h, CellTiter-Glo) [µM] | EC50 (SUDHL10 cells [1]; [8]) [µM] |
| --- | --- | --- | --- | --- | --- | --- | --- | --- | --- |
| CCc1c2c(nn1C)C(CCN1CCC(F)(F)C1)OCCCCn1c(C(=O)O)c(CCCOc3cccc4cc(F)ccc34)c3ccc(Cl)c-2c31 (single isomer, unassigned; enantiomer 2) [Example 57, 4-chloro-15-[2-(3,3-difluoropyrrolidin-1-yl)ethyl]-3-ethyl-7-{3-[(6-fluoronaphthalen-1-yl)oxy]propyl}-2-methyl-2,10,11,12,13,15-hexahydropyrazolo[4′,3′:9,10][1,6]oxazacycloundecino[8,7,6-hi]indole-8-carboxylic Acid N-ethylethanamine Salt (Enantiomer 2)] | > 20 | 7.7 | 13.6 | 10 |  |  |  |  |  |
| CCc1c2c(nn1C)C(CCN1CCOCC1)OCCCCn1c(C(=O)O)c(CCCOc3cccc4cc(F)ccc34)c3ccc(Cl)c-2c31 (racemic) [Example 22, (rac)-4-chloro-3-ethyl-7-{3-[(6-fluoronaphthalen-1-yl)oxy]propyl}-2-methyl-15-[2-(morpholin-4-yl)ethyl]-2,10,11,12,13,15-hexahydropyrazolo[4′,3′:9,10][1,6]oxazacycloundecino[8,7,6-hi]indole-8-carboxylic Acid] | > 20 |  |  |  | 0.02 | 0.279 | 0.028 |  |  |
| CCc1c2c(nn1C)C(CCOC)OCCCCn1c(C(=O)O)c(CCCOc3cccc4cc(F)ccc34)c3ccc(Cl)c-2c31 (single isomer, unassigned; enantiomer 1) [Example 42, (+)-4-chloro-3-ethyl-7-{3-[(6-fluoronaphthalen-1-yl)oxy]propyl}-15-(2-methoxyethyl)-2-methyl-2,10,11,12,13,15-hexahydropyrazolo[4′,3′:9,10][1,6]oxazacycloundecino[8,7,6-hi]indole-8-carboxylic Acid—N-ethylethanamine Salt (Enantiomer 1)] | 15 | 0.052 | 1.08 | 0.066 |  |  |  |  |  |
| CCc1c2c(nn1C)C(CCOC)OCCCCn1c(C(=O)O)c(CCCOc3cccc4cc(F)ccc34)c3ccc(Cl)c-2c31 (single isomer, unassigned; enantiomer 2) [Example 43, (−)-4-chloro-3-ethyl-7-{3-[(6-fluoronaphthalen-1-yl)oxy]propyl}-15-(2-methoxyethyl)-2-methyl-2,10,11,12,13,15-hexahydropyrazolo[4′,3′:9,10][1,6]oxazacycloundecino[8,7,6-hi]indole-8-carboxylic Acid—N-ethylethanamine Salt (Enantiomer 2)] | 17.2 | 24 | 26.5 | 19 |  |  |  |  |  |
| Cc1c2c(nn1C)C(CCN1CCOCC1)OCCCCn1c(C(=O)O)c(CCCOc3cccc4cc(F)ccc34)c3ccc(F)c-2c31 (racemic) [Example 19, (rac)-4-fluoro-7-{3-[(6-fluoronaphthalen-1-yl)oxy]propyl}-2,3-dimethyl-15-[2-(morpholin-4-yl)ethyl]-2,10,11,12,13,15-hexahydropyrazolo[4′,3′:9,10][1,6]oxazacycloundecino[8,7,6-hi]indole-8-carboxylic Acid] | > 20 |  |  |  | 0.079 |  | 0.11 |  |  |
| Cc1c2c(nn1C)C(C)OCCCCn1c(C(=O)O)c(CCCOc3cccc4ccccc34)c3cccc-2c31 (single isomer, unassigned; stereoisomer 2) [Example 3, 2,3,15-trimethyl-7-[3-(naphthalen-1-yloxy)propyl]-2,10,11,12,13,15-hexahydropyrazolo[4′,3′:9,10][1,6]oxazacycloundecino[8,7,6-hi]indole-8-carboxylic Acid Trifluoroacetic Acid Salt (Stereoisomer 2)] | > 20 | > 33 |  |  |  |  |  | 26 |  |
| Cc1c2c(nn1C)C(CCN1CCOCC1)OCCCCn1c(C(=O)O)c(CCCOc3cccc4ccccc34)c3cccc-2c31 (single isomer, unassigned; stereoisomer 2) [Example 6, 2,3-dimethyl-15-[2-(morpholin-4-yl)ethyl]-7-[3-(naphthalen-1-yloxy)propyl]-2,10,11,12,13,15-hexahydropyrazolo[4′,3′:9,10][1,6]oxazacycloundecino[8,7,6-hi]indole-8-carboxylic Acid (Stereoisomer 2)] | > 20 |  |  | 29 |  |  |  |  | 31 |
| CCc1c2c(nn1C)C(CCN1CCOCC1)OCCCCn1c(C(=O)O)c(CCCOc3cccc4ccccc34)c3ccc(F)c-2c31 (single isomer, unassigned; enantiomer 2) [Example 12, 3-ethyl-4-fluoro-2-methyl-15-[2-(morpholin-4-yl)ethyl]-7-{3-[(naphthalen-1-yl)oxy]propyl}-2,10,11,12,13,15-hexahydropyrazolo[4′,3′:9,10][1,6]oxazacycloundecino[8,7,6-hi]indole-8-carboxylic Acid—N-ethylethanamine Salt (Enantiomer 2)] | > 20 | 7.1 |  | 8.1 |  |  |  |  |  |
| Cc1c2c(nn1C)C(CCN1CCOCC1)OCCCCn1c(C(=O)O)c(CCCOc3cccc4ccccc34)c3ccc(Cl)c-2c31 (racemic) [Example 13, (rac)-4-chloro-2,3-dimethyl-15-[2-(morpholin-4-yl)ethyl]-7-{3-[(naphthalen-1-yl)oxy]propyl}-2,10,11,12,13,15-hexahydropyrazolo[4′,3′:9,10][1,6]oxazacycloundecino[8,7,6-hi]indole-8-carboxylic Acid] | > 20 |  |  |  | 0.14 |  | 0.21 |  |  |
| Cc1c2c(nn1C)C(CCN1CCOCC1)OCCCCn1c(C(=O)O)c(CCCOc3cccc4ccccc34)c3ccc(Cl)c-2c31 (single isomer, unassigned; enantiomer 2) [Example 15, 4-chloro-2,3-dimethyl-15-[2-(morpholin-4-yl)ethyl]-7-{3-[(naphthalen-1-yl)oxy]propyl}-2,10,11,12,13,15-hexahydropyrazolo[4′,3′:9,10][1,6]oxazacycloundecino[8,7,6-hi]indole-8-carboxylic Acid (Enantiomer 2)] | > 20 |  |  | 9.7 |  |  |  |  | 11 |
| CCc1c2c(nn1C)C(CCN1CCC(F)(F)C1)OCCCCn1c(C(=O)O)c(CCCOc3cccc4cc(F)ccc34)c3ccc(Cl)c-2c31 (single isomer, unassigned; enantiomer 1) [Example 56, 4-chloro-15-[2-(3,3-difluoropyrrolidin-1-yl)ethyl]-3-ethyl-7-{3-[(6-fluoronaphthalen-1-yl)oxy]propyl}-2-methyl-2,10,11,12,13,15-hexahydropyrazolo[4′,3′:9,10][1,6]oxazacycloundecino[8,7,6-hi]indole-8-carboxylic Acid—N-ethylethanamine Salt (Enantiomer 1)] | > 20 | 0.02 |  | 0.039 |  |  |  |  |  |
